Measurements: patent publication US12528816B2, “Substituted imidazo [1,2-b] pyridazines and [1, 2, 4] triazolo [ 4,3-b] pyridazines as camkii inhibitors” (Cardurion Pharmaceuticals, INC., priority 2020, dated 2026)

Biological target: T1, human CaMKIIδ (Homo sapiens, UniProt Q13557)
T1 construct: Full-length, glutathione-S-transferase(GST)-tagged, human CaMKIIδ was purchased from Carna Biosciences; purchased Carna Biosciences (CaMKIIδ); Wako Pure Chemical Industries (calmodulin) 02-111
Assay: Evaluation of in vitro CaMKII inhibitory activity (binding assay, TR-FRET)
Settings: human CaMKIIδ, TR-FRET binding assay; class symbols A/B/C; read-out: Act (CaMKII inhibitory activity, binding assay)
Description: Evaluation of In Vitro CaMKII Inhibitory Activity (Binding Assay)
In vitro CaMKIIδ inhibitory activity was evaluated by a binding assay.
Full-length bovine calmodulin was purchased from Wako Pure Chemical Industries (Osaka, Japan). Terbium-labeled anti-GST anti body (Tb-anti-GST Ab) was purchased from Life Technologies (Carlsbad, CA, USA). Fluorescent probe ligand, 5,5-difluoro-7,9-dimethyl-3-(3-oxo-3-((3-((4-(3-(piperazin-1-yl)phenyl)pyrimidin-2-yl)amino)phenyl)amino) propyl)-5H-dipyrrolo[1,2-c:2′,1′-f]
Time-resolved fluorescence resonance energy transfer (TR-FRET) assay
The fluorescent probe ligand, 5,5-difluoro-7,9-dimethyl-3-(3-oxo-3-((3-((4-(3-(piperazin-1-yl)phenyl)pyrimidin-2-yl)amino)phenyl)amino) propyl)-5H-dipyrrolo[1,2-c:2′,1′-f] […] After shaded incubation of the protein-probe mixture on ice for 30 min, the premix was dispensed in the assay plate including test inhibitors with 4 fold dilution series of eight concentrations. After 1 hr incubation at room temperature, TR-FRET signals were measured in duplicate using an EnVision microplate reader (Perkin Elmer, Waltham, MA, USA).
The half maximal inhibitory concentration (IC50) of test compounds was calculated by fitting the data with the logistic equation using XLfit (IDBS, Guildford, UK).

| Structure (SMILES) | IC50 [nM] |
| --- | --- |
| CC(=O)Nc1cccc(-c2cnn3ccc(-c4ccc(F)c(O[C@@H](C)Cn5cnnn5)c4)nc23)c1 [compound 36] | < 10 |
| COC1CN(C(=O)c2cccc(-n3cnc4ccc(-c5ccc(F)c(O[C@@H](C)Cn6cnnn6)c5)nc43)c2C#N)C1 [compound 229, 2-[5-(4-fluoro-3-{[(2S)-1-(1H-tetrazol-1-yl)propan-2-yl]oxy}phenyl)-3H-imidazo[4,5-b]pyridin-3-yl]-6-(3-methoxyazetidine-1-carbonyl)benzonitrile] | 10 to 100 |
| C[C@@H](Cn1cnnn1)Oc1cc(-c2ccc3ncn(-c4cn[nH]c4)c3n2)ccc1F [compound 119] | < 10 |
| C[C@@H](Cn1cnnn1)Oc1cc(-c2ccn3ncc(-c4cncnc4)c3n2)ccc1F [compound 22] | < 10 |
| COC(=O)c1cccc(-c2cnn3ccc(-c4ccc(F)c(O[C@@H](C)Cn5cnnn5)c4)nc23)c1 [compound 6] | < 10 |
| C[C@@H](Cn1cnnn1)Oc1cc(-c2ccn3ncc(-c4ccn(C)n4)c3n2)ccc1F [compound 25] | < 10 |
| COC1CCN(C(=O)c2cccc(-c3cnn4ccc(-c5cccc(O[C@@H](C)Cn6cnnn6)c5)nc34)c2)CC1 [compound 101] | 10 to 100 |
| C[C@@H](Cn1cnnn1)Oc1cccc(-c2ccn3ncc(-c4cccc(C(=O)NC5CCN(C)CC5)c4)c3n2)c1 [compound 98] | < 10 |
| C[C@@H](Cn1cnnn1)Oc1cc(-c2ccc3ncc(-c4cccc(N=S(C)(C)=O)c4C#N)n3n2)ccc1F [compound 191] | < 10 |
| C[C@@H](Cn1cnnn1)Oc1cc(-c2ccc3ncc(-c4cc(Br)cc5c4OCC5)n3n2)ccc1F [compound 187] | < 10 |
| C[C@@H](Cn1cnnn1)Oc1cc(-c2ccn3ncc(-c4cccc(F)c4)c3n2)ccc1F [compound 50] | < 10 |
| C[C@@H](Cn1cnnn1)Oc1cccc(-c2ccn3ncc(-c4cccc(C(=O)NCCC5CCN(C)CC5)c4)c3n2)c1 [compound 76] | < 10 |
| C[C@@H](Cn1cnnn1)Oc1cccc(-c2ccn3ncc(-c4cccc(C(=O)NCCN5CCOCC5)c4)c3n2)c1 [compound 67] | < 10 |
| CNC(=O)CNC(=O)c1cccc(-c2cnn3ccc(-c4cccc(O[C@@H](C)Cn5cnnn5)c4)nc23)c1 [compound 77] | < 10 |
| C[C@@H](Cn1cnnn1)Oc1cccc(-c2ccn3ncc(-c4cccc(C(=O)NCc5cccnc5)c4)c3n2)c1 [compound 94] | < 10 |
| C[C@@H](Cn1cnnn1)Oc1cc(-c2ccn3ncc(-c4ccncc4)c3n2)ccc1F [compound 21] | < 10 |
| CNC(=O)c1ccc(-c2cnn3ccc(-c4ccc(F)c(O[C@@H](C)Cn5cnnn5)c4)nc23)cc1 [compound 37] | < 10 |
| CC[C@@H](Cn1cnnn1)Oc1cc(-c2ccc3ncc(-c4nccc(OC)c4C#N)n3n2)ccc1F [compound 476] | < 10 |
| C[C@@H](Cn1cnnn1)Oc1cc(-c2ccn3ncc(-c4cccs4)c3n2)ccc1F [compound 3] | < 10 |
| C[C@@H](Cn1cnnn1)Oc1cccc(-c2ccn3ncc(-c4cccc(C(=O)N5CCn6ncnc6C5)c4)c3n2)c1 [compound 110] | 10 to 100 |
| C[C@@H](Cn1cnnn1)Nc1cc(-c2ccc3ncc(-c4ncccc4C#N)n3n2)ccc1F [compound 485] | < 10 |
| C[C@@H](Cn1cnnn1)Oc1cccc(-c2ccc3ncn(-c4cc(F)cc(O)c4C#N)c3n2)n1 [Example 472, 4-fluoro-2-hydroxy-6-[5-(6-{[(2S)-1-(1H-tetrazol-1-yl)propan-2-yl]oxy}pyridin-2-yl)-3H-imidazo[4,5-b]pyridin-3-yl]benzonitrile] | < 10 |
| C[C@@H](Cn1cnnn1)Oc1cc(-c2ccn3ncc(-c4cccnc4)c3n2)ccc1F [compound 20] | < 10 |

Same assay, conditions: in vitro CaMKII inhibitory activity (binding assay), human CaMKIIδ; read-out: Act

| Structure (SMILES) | IC50 [nM] |
| --- | --- |
| C[C@@H](Cn1cnnn1)Oc1cccc(-c2ccc3ncc(-c4cc(F)c(F)cc4C#N)n3n2)n1 [compound 433] | < 10 |
| C[C@@H](Cn1cnnn1)Oc1cc(-c2ccc3ncc(-c4cc(=O)n(C)cc4C#N)n3n2)ccc1F [compound 242] | < 10 |
| C[C@@H](Cn1cnnn1)Oc1cc(-c2ccc3ncc(-c4ccn5ccnc5c4C#N)n3n2)ccc1F [compound 250] | < 10 |
| C[C@@H](Cn1cnnn1)Oc1cccc(-c2ccc3ncc(-c4nccnc4C#N)n3n2)c1 [compound 262] | < 10 |
| C[C@@H](Cn1cnnn1)Oc1cccc(-c2ccc3ncc(-c4nccc(OCC(F)F)c4C#N)n3n2)c1 [Example 354, 4-(2,2-difluoroethoxy)-2-[6-(3-{[(2S)-1-(1H-tetrazol-1-yl)propan-2-yl]oxy}phenyl)imidazo[1,2-b]pyridazin-3-yl]pyridine-3-carbonitrile] | < 10 |
| COc1ccnc(-n2cnc3ccc(-c4ccc(F)c(O[C@@H](C)Cn5cnnn5)c4)nc32)c1C#N [compound 355] | < 10 |
| Cc1cnc(C#N)c(-c2cnc3ccc(-c4cccc(O[C@@H](C)Cn5cnnn5)c4)nn23)n1 [compound 277] | < 10 |
| C[C@@H](Cn1cnnn1)Oc1cccc(-c2ccc3ncc(-c4cccn(C)c4=O)n3n2)c1 [Example 253, 1-methyl-3-[6-(3-{[(2S)-1-(1H-tetrazol-1-yl)propan-2-yl]oxy}phenyl)imidazo[1,2-b]pyridazin-3-yl]-1,2-dihydropyridin-2-one] | < 10 |
| C[C@@H](Cn1cnnn1)Oc1cc(-c2ccc3ncc(-c4nccc(N)c4C#N)n3n2)ccc1F [compound 234] | < 10 |
| C[C@@H](Cn1cnnn1)Oc1cccc(-c2ccc3ncc(-c4cc(Cl)cn(C)c4=O)n3n2)c1 [compound 334] | < 10 |
| C[C@@H](Cn1cnnn1)Oc1cccc(-c2ccc3ncc(-c4c[n+]([O-])ccc4C#N)n3n2)c1 [compound 276] | < 10 |
| C[C@@H](Cn1cnnn1)Oc1cncc(-c2ccc3ncn(-c4cc(C(F)F)ccc4C#N)c3n2)n1 [compound 384] | > 100 |
| Cc1c(-c2cnc3ccc(-c4ccc(F)c(O[C@@H](C)Cn5cnnn5)c4)nn23)c(C(F)(F)F)nn1C [compound 266] | > 100 |
| COCCCn1ncc(-c2cnc3ccc(-c4ccc(F)c(O[C@@H](C)Cn5cnnn5)c4)nn23)c1C(=O)N(C)C [compound 236] | > 100 |
| CCOc1ccnc(-n2cnc3ccc(-c4cccc(O[C@@H](C)Cn5cnnn5)c4)nc32)c1C#N [compound 374] | < 10 |
| C[C@@H](Cn1cnnn1)Oc1cccc(-c2ccc3ncc(-c4nc(F)c(F)cc4C#N)n3n2)c1 [compound 451] | < 10 |
| COc1ncnc(-c2cnc3ccc(-c4cccc(O[C@@H](C)Cn5cnnn5)n4)nn23)c1C#N [compound 459] | > 100 |
| C[C@@H](Cn1cnnn1)Oc1cc(F)cc(-c2ccc3ncc(-c4ncccc4C#N)n3n2)c1 [compound 296] | < 10 |
| COc1ccc(C#N)c(-c2cnc3ccc(-c4cccc(O[C@@H](C)Cn5cnnn5)n4)nn23)c1 [compound 420] | < 10 |
| COc1ccnc(-c2cnc3ccc(-c4ccc(F)c(O[C@@H](C)Cn5ncnn5)c4)nn23)c1C#N [compound 444] | < 10 |
| COc1nccc(-c2cnc3ccc(-c4cccc(O[C@@H](C)Cn5cnnn5)n4)nn23)c1C#N [compound 403] | < 10 |
| C[C@@H](Cn1cnnn1)Oc1cccc(-c2ccc3ncn(-c4cc(F)cc(OC(F)F)c4C#N)c3n2)n1 [compound 405] | < 10 |
| CNc1ccc(C#N)c(-c2cnc3ccc(-c4cccc(O[C@@H](C)Cn5cnnn5)c4)nn23)n1 [compound 361] | < 10 |
